In patent US4383113A, “Agricultural sulfonamides” (E. I. Du Pont de Nemours and Company, priority 1981, dated 1983):

Assays:
purple nutsedge = test: Test F post-emergence; assay type: in vivo, Cyperus rotundus
Text: Purple nutsedge tubers (Cyperus rotundus) were planted about 2 cm deep in Fallsington silt loam contained in plastic pots 10 cm in diameter. Five tubers were put in each pot. Compounds of this invention were sprayed dissolved in a non-phytotoxic solvent at a volume rate of 560 l/ha. in four different methods of treatment, i.e., soil surface spray, tuber/soil spray, soil incorporated and post-emergence. For the soil surface spray, the compounds were sprayed on the firmed soil surface immediately after planting. For the tuber/soil spray, the compounds were sprayed on the exposed tubers and subtending soil before the untreated covering soil was added. Soil incorporation treatments were mixed in the covering soil. Post-emergence treatments were sprayed on the nutsedge foliage and surrounding soil surface after the nutsedge had emerged and had reached the height of about 12 cm.
Immediately after spraying the surface spray, tuber/soil spray and soil incorporated treatments were misted with about 0.3 cm of water over a 90 minute period and then placed in the greenhouse. Post-emergence treatments were placed directly into the greenhouse and watered carefully so that treatments would not be washed from the foliage.

nutsedge = test: Test A post-emergence; assay type: in vivo, Cyperus rotundus; parameters: key: 0 = no effect, 10 = maximum effect; letter = response symbol; conditions: 0.4 kg/ha
Text: (§1) The activity of these compounds was discovered in a number of greenhouse and field tests. The ratings are based on a numerical scale extending from 0=no effect, to 10=maximum effect. The accompanying descriptive symbols have the following meanings:
(§2) Seeds of crabgrass (Digitaria spp.), barnyardgrass (Echinochloa crusgalli), wild oats (Avena fatua), cassia (Cassia tora), morningglory (Ipomoea spp.), cocklebur (Xanthium spp.), sorghum, corn, soybean, rice, wheat and nutsedge tubers (Cyperus rotundus) were planted in a growth medium and treated preemergence with a nonphytotoxic solvent solution of the compounds of Table XII. Other batches of seeds and tubers for all of the foregoing weed and crop plants were planted at the same time as controls. The control plantings were untreated; i.e., neither any compound nor any solvent was applied. At the same time, cotton having five leaves (including cotyledonary ones), bush beans with the third trifoliate leaf expanding, crabgrass with two leaves, barnyardgrass with two leaves, wild oats with two leaves, cassia with three leaves (including cotyledonary ones), morningglory with four leaves (including the cotyledonary ones), cocklebur with four leaves (including the cotyledonary ones), sorghum with four leaves, corn with four leaves, soybean with two cotyledonary leaves, rice with three leaves, wheat with one leaf, and nutsedge with three-five leaves were sprayed with a nonphytotoxic solvent solution of the compounds of Table XII. Other groups of all the same weed and crop plants were sprayed with the same nonphytotoxic solvent so as to provide control plants. Preemergence and postemergence treated plants and controls were maintained in a greenhouse for sixteen days, then all treated plants were compared with their respective controls and rated visually for response to treatment.

cocklebur [1] = test: Test A post-emergence; assay type: in vivo, Xanthium spp.; parameters: key: 0 = no effect, 10 = maximum effect; letter = response symbol; conditions: 0.4 kg/ha
Text: as §1, §2

bush bean = test: Test A post-emergence; assay type: in vivo, bush beans; parameters: key: 0 = no effect, 10 = maximum effect; letter = response symbol; conditions: 0.4 kg/ha
cassia [2] = test: Test A post-emergence; assay type: in vivo, Cassia tora; parameters: key: 0 = no effect, 10 = maximum effect; letter = response symbol; conditions: 0.4 kg/ha
Text: as §1, §2

morningglory [3] = test: Test A post-emergence; assay type: in vivo, Ipomoea spp.; parameters: key: 0 = no effect, 10 = maximum effect; letter = response symbol; conditions: 0.4 kg/ha
Text: as §1, §2

crabgrass = test: Test A post-emergence; assay type: in vivo, Digitaria spp.; parameters: key: 0 = no effect, 10 = maximum effect; letter = response symbol; conditions: 0.4 kg/ha
Text: as §1, §2

wild oats [4] = test: Test A post-emergence; assay type: in vivo, Avena fatua; parameters: key: 0 = no effect, 10 = maximum effect; letter = response symbol
Text: as §1, §2

wheat [5] = test: Test A post-emergence; assay type: in vivo; parameters: key: 0 = no effect, 10 = maximum effect; letter = response symbol
Text: as §1, §2

corn = test: Test A post-emergence; assay type: in vivo; parameters: key: 0 = no effect, 10 = maximum effect; letter = response symbol; conditions: 0.4 kg/ha
Text: as §1, §2

barnyardgrass [6] = test: Test A post-emergence; assay type: in vivo, Echinochloa crusgalli; parameters: key: 0 = no effect, 10 = maximum effect; letter = response symbol
Text: as §1, §2

sorghum [7] = test: Test A pre-emergence; assay type: in vivo; parameters: key: 0 = no effect, 10 = maximum effect; letter = response symbol; conditions: 0.4 kg/ha
Text: as §1, §2

soybean = test: Test A pre-emergence; assay type: in vivo; parameters: key: 0 = no effect, 10 = maximum effect; letter = response symbol; conditions: 0.4 kg/ha
Text: as §1, §2

cocklebur [8] = test: Test A pre-emergence; assay type: in vivo, Xanthium spp.; parameters: key: 0 = no effect, 10 = maximum effect; letter = response symbol; conditions: 0.4 kg/ha
Text: as §1, §2

morningglory [9] = test: Test A pre-emergence; assay type: in vivo, Ipomoea spp.; parameters: key: 0 = no effect, 10 = maximum effect; letter = response symbol; conditions: 0.4 kg/ha
Text: as §1, §2

cassia [10] = test: Test A pre-emergence; assay type: in vivo, Cassia tora; parameters: key: 0 = no effect, 10 = maximum effect; letter = response symbol; conditions: 0.4 kg/ha
Text: as §1, §2

sorghum [11] = test: Test A post-emergence; assay type: in vivo; parameters: key: 0 = no effect, 10 = maximum effect; letter = response symbol; conditions: 0.4 kg/ha
Text: as §1, §2

wheat [12] = test: Test A pre-emergence; assay type: in vivo; parameters: key: 0 = no effect, 10 = maximum effect; letter = response symbol; conditions: 0.4 kg/ha
Text: as §1, §2

barnyardgrass [13] = test: Test A pre-emergence; assay type: in vivo, Echinochloa crusgalli; parameters: key: 0 = no effect, 10 = maximum effect; letter = response symbol; conditions: 0.4 kg/ha
Text: as §1, §2

wild oats [14] = test: Test A pre-emergence; assay type: in vivo, Avena fatua; parameters: key: 0 = no effect, 10 = maximum effect; letter = response symbol; conditions: 0.4 kg/ha
Text: as §1, §2

COC(=O)c1ccccc1S(=O)(=O)NC(=O)Nc1nc(C)cc(C)n1 [drawing 591]
response rating after 4 weeks (purple nutsedge; .008 kg/ha): 9C
response rating after 4 weeks (purple nutsedge; .016 kg/ha): 9C
response rating after 4 weeks (purple nutsedge; .032 kg/ha): 10C
response rating after 4 weeks (purple nutsedge; .064 kg/ha): 10C

COC(=O)c1cc([N+](=O)[O-])ccc1S(=O)(=O)NC(=O)Nc1nc(C)cc(OC)n1 [drawing 462]
response rating (nutsedge): 9G
response rating (cocklebur [1]): 9C
response rating (bush bean): 9C
response rating (cassia [2]): 9C
response rating (morningglory [3]): 9C

CCC(C)OC(=O)c1ccccc1S(=O)(=O)NC(=O)Nc1nc(C)cc(OC)n1 (stereo not drawn) [drawing 424]
response rating (crabgrass): 0
response rating (wild oats [4]; 0.4 kg/ha): 8G
response rating (nutsedge): 8G
response rating (cocklebur [1]): 9C
response rating (morningglory [3]): 10C

COC(=O)c1ccccc1S(=O)(=O)NC(=O)Nc1nc(OC)nc(OC)n1 [drawing 595]
response rating after 4 weeks (purple nutsedge; .004 kg/ha): 0
response rating after 4 weeks (purple nutsedge; .008 kg/ha): 0
response rating after 4 weeks (purple nutsedge; .032 kg/ha): 3G

COc1nc(C)nc(NC(=O)NS(=O)(=O)c2ccccc2C(=O)OC(C)CCl)n1 (stereo not drawn) [drawing 459]
response rating (wheat [5]; 0.4 kg/ha): 2G
response rating (wild oats [4]; 0.4 kg/ha): 3G
response rating (cocklebur [1]): 9C
response rating (bush bean): 9C
response rating (morningglory [3]): 10C

COc1cc(C)nc(NC(=O)NS(=O)(=O)c2ccccc2C(=O)CCC(C)C)n1 [drawing 449]
response rating (corn): 9H
response rating (bush bean): 10D
response rating (morningglory [3]): 10C
response rating (barnyardgrass [6]; 0.4 kg/ha): 9C

COc1cc(OC)nc(NC(=O)NS(=O)(=O)c2ccccc2C(=O)OC(C)C)n1 [drawing 602]
response rating after 4 weeks (purple nutsedge; .008 kg/ha): 10C
response rating after 4 weeks (purple nutsedge; .032 kg/ha): 10C
response rating after 4 weeks (purple nutsedge; .125 kg/ha): 10C
response rating after 4 weeks (purple nutsedge; .25 kg/ha): 10C

COc1cc(C)nc(NC(=O)NS(=O)(=O)c2ccccc2C(=O)SC)n1 [drawing 544]
response rating (sorghum [7]): 9H
response rating (soybean): 9H
response rating (cocklebur [8]): 9G
response rating (morningglory [9]): 9G
response rating (cassia [10]): 9G

CCCCOC(=O)c1ccccc1S(=O)(=O)NC(=O)Nc1nc(C)cc(OC)n1 [drawing 599]
response rating after 4 weeks (purple nutsedge; .125 kg/ha): 8C

COC(=O)c1cc(Cl)ccc1S(=O)(=O)NC(=O)Nc1nc(OC)cc(OC)n1 [drawing 605]
response rating after 4 weeks (purple nutsedge; .008 kg/ha): 10C
response rating after 4 weeks (purple nutsedge; .032 kg/ha): 10C
response rating after 4 weeks (purple nutsedge; .125 kg/ha): 10C

COc1cc(OC)nc(NC(=O)NS(=O)(=O)c2ccccc2C(=O)OC2CCCCC2)n1 [drawing 431]
response rating (sorghum [11]): 8H
response rating (wheat [5]; 0.4 kg/ha): 1C
response rating (corn): 7H
response rating (cocklebur [1]): 9C
response rating (cassia [2]): 1C
response rating (morningglory [3]): 9C

COC(=O)c1ccccc1S(=O)(=O)NC(=O)Nc1nc(C)nc(OC)n1 [drawing 594]
response rating after 4 weeks (purple nutsedge; .004 kg/ha): 0
response rating after 4 weeks (purple nutsedge; .008 kg/ha): 2G
response rating after 4 weeks (purple nutsedge; .016 kg/ha): 2G

COC(=O)c1ccccc1S(=O)(=O)NC(=O)Nc1ncccn1 [drawing 418]
response rating (wheat [5]; 2 kg/ha): 5G
response rating (wild oats [4]; 2 kg/ha): 2G
response rating (barnyardgrass [6]; 2 kg/ha): 9C

CCOC(=O)c1ccccc1S(=O)(=O)NC(=O)Nc1nc(OC)cc(OC)n1 [drawing 598]
response rating after 4 weeks (purple nutsedge; .008 kg/ha): 10C
response rating after 4 weeks (purple nutsedge; .032 kg/ha): 10C
response rating after 4 weeks (purple nutsedge; .125 kg/ha): 10C
response rating after 4 weeks (purple nutsedge; .25 kg/ha): 10C

CCCCCCCCCCOC(=O)c1ccccc1S(=O)(=O)NC(=O)Nc1nc(C)cc(OC)n1 [drawing 428]
response rating (crabgrass): 0
response rating (wheat [5]; 0.4 kg/ha): 3C
response rating (wild oats [4]; 0.4 kg/ha): 5G
response rating (nutsedge): 7G
response rating (cassia [2]): 5G

COC(=O)c1cc(Cl)ccc1S(=O)(=O)NC(=O)Nc1nc(C)cc(OC)n1 [drawing 501]
response rating (sorghum [7]): 9H
response rating (wheat [12]): 8H
response rating (soybean): 9H
response rating (cocklebur [8]): 9H
response rating (barnyardgrass [13]): 9H
response rating (morningglory [9]): 9G
response rating (wild oats [14]): 9G

COc1cc(C)nc(NC(=O)NS(=O)(=O)c2ccccc2C(=O)OCCOCCOCCCl)n1 [drawing 515]
response rating (soybean): 9H
response rating (cocklebur [8]): 9G
response rating (barnyardgrass [13]): 9H
response rating (morningglory [9]): 9G
response rating (cassia [10]): 9C

CNC(=O)c1ccccc1S(=O)(=O)NC(=O)Nc1nc(C)cc(OC)n1 [drawing 533]
response rating (wheat [12]): 9H
response rating (soybean): 9H
response rating (cocklebur [8]): 9G
response rating (cassia [10]): 9G

COc1cc(C)nc(NC(=O)NS(=O)(=O)c2ccccc2C(=O)OC2CCOC2)n1 (stereo not drawn) [drawing 513]
response rating (wheat [12]): 9H
response rating (soybean): 9H
response rating (cocklebur [8]): 9G
response rating (barnyardgrass [13]): 9H
response rating (morningglory [9]): 9G
response rating (cassia [10]): 9G

COC(=O)c1ccccc1S(=O)(=O)NC(=O)Nc1nc(C)cc(OC)n1 [drawing 592]
response rating after 4 weeks (purple nutsedge; .008 kg/ha): 9C
response rating after 4 weeks (purple nutsedge; .016 kg/ha): 9C
response rating after 4 weeks (purple nutsedge; .032 kg/ha): 10C
response rating after 4 weeks (purple nutsedge; .064 kg/ha): 10C

COc1cc(C)nc(NC(=O)NS(=O)(=O)c2ccccc2C(=O)OC(C)C)n1 [drawing 601]
response rating after 4 weeks (purple nutsedge; .008 kg/ha): 10C
response rating after 4 weeks (purple nutsedge; .032 kg/ha): 10C
response rating after 4 weeks (purple nutsedge; .125 kg/ha): 10C
response rating after 4 weeks (purple nutsedge; .25 kg/ha): 10C

COC(=O)c1ccccc1S(=O)(=O)NC(=O)Nc1nc(OC)cc(OC)n1 [drawing 593]
response rating after 4 weeks (purple nutsedge; .004 kg/ha): 8C
response rating after 4 weeks (purple nutsedge; .008 kg/ha): 10C
response rating after 4 weeks (purple nutsedge; .016 kg/ha): 10C
response rating after 4 weeks (purple nutsedge; .032 kg/ha): 9C
response rating after 4 weeks (purple nutsedge; .064 kg/ha): 10C

COc1nc(C)nc(NC(=O)NS(=O)(=O)c2ccccc2C(=O)OC(C)Cc2ccccc2)n1 (stereo not drawn) [drawing 457]
response rating (crabgrass): 9C
response rating (corn): 9C
response rating (nutsedge): 7G
response rating (cocklebur [1]): 9C
response rating (bush bean): 9C
response rating (cassia [2]): 10C
response rating (morningglory [3]): 10C
response rating (barnyardgrass [6]; 0.4 kg/ha): 9C

COc1cc(C)nc(NC(=O)NS(=O)(=O)c2ccccc2C(=O)NCc2ccccc2)n1 [drawing 531]
response rating (wheat [12]): 9H
response rating (soybean): 9H
response rating (cocklebur [8]): 8G
response rating (barnyardgrass [13]): 9H
response rating (morningglory [9]): 9G
response rating (cassia [10]): 9G
response rating (wild oats [14]): 3C

COC(=O)c1cc(Cl)ccc1S(=O)(=O)NC(=O)Nc1nc(OC)nc(OC)n1 [drawing 435]
response rating (crabgrass): 1C
response rating (sorghum [11]): 8H
response rating (wheat [5]; 0.4 kg/ha): 0
response rating (corn): 9H
response rating (wild oats [4]; 0.4 kg/ha): 0
response rating (nutsedge): 10C
response rating (cocklebur [1]): 10C
response rating (morningglory [3]): 10C
response rating (barnyardgrass [6]; 0.4 kg/ha): 3G

COc1nc(C)nc(NC(=O)NS(=O)(=O)c2ccccc2C(=O)OCc2ccc(Cl)cc2)n1 [drawing 460]
response rating (wheat [5]; 0.4 kg/ha): 0
response rating (wild oats [4]; 0.4 kg/ha): 2C
response rating (nutsedge): 0
response rating (morningglory [3]): 9C
